The values below come from ChEMBL document CHEMBL4402605, “A Chemical Switch for Transforming a Purine Agonist for Toll-like Receptor 7 to a Clinically Relevant Antagonist” (J Med Chem, 2020).

Structures are written as SMILES. Calls of active or inactive are those of the source. The rule behind the calls is not given here.

The target of assay [1] is T1, Toll-like receptor 7 (Homo sapiens, UniProt Q9NYK1).
T1 sequence (Q9NYK1 whole entry): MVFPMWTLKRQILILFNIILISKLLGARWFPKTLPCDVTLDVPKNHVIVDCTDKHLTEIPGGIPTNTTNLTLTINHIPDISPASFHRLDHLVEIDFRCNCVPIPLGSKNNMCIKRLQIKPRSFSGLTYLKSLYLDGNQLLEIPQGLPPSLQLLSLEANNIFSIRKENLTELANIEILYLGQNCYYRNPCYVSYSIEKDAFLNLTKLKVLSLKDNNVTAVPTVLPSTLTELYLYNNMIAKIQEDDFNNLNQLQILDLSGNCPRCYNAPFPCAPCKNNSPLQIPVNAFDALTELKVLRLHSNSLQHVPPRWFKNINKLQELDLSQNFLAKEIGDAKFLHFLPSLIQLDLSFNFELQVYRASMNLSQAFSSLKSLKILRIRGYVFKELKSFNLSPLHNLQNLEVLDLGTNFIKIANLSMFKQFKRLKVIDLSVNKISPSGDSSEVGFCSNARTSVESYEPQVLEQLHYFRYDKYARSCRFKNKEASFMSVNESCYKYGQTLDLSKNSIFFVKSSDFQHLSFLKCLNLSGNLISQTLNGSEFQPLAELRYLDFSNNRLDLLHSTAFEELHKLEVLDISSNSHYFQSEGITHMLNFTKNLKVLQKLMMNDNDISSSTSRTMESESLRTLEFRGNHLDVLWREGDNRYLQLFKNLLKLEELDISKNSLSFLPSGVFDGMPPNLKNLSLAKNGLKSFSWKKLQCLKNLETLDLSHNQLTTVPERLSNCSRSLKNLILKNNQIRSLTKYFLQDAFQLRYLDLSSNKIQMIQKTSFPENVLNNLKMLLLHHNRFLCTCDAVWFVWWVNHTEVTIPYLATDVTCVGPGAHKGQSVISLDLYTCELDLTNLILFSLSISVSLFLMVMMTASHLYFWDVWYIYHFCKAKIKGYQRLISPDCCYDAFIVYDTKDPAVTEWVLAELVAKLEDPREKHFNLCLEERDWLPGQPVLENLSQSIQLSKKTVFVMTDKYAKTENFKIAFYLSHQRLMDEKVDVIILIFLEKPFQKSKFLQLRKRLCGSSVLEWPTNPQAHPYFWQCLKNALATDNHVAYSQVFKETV
Description: Antagonist activity at human TLR7 expressed in HEK-Blue cells assessed as inhibition of CL264-induced NFkappaB activation by measuring reduction in SEAP level after overnight incubation using qunati-blue reagent by SEAP reporter gene-based spectrophotometric method

Assay [2] has as its target T2, Toll-like receptor 8 (Homo sapiens) (UniProt Q9NR97).
T2 sequence (whole entry): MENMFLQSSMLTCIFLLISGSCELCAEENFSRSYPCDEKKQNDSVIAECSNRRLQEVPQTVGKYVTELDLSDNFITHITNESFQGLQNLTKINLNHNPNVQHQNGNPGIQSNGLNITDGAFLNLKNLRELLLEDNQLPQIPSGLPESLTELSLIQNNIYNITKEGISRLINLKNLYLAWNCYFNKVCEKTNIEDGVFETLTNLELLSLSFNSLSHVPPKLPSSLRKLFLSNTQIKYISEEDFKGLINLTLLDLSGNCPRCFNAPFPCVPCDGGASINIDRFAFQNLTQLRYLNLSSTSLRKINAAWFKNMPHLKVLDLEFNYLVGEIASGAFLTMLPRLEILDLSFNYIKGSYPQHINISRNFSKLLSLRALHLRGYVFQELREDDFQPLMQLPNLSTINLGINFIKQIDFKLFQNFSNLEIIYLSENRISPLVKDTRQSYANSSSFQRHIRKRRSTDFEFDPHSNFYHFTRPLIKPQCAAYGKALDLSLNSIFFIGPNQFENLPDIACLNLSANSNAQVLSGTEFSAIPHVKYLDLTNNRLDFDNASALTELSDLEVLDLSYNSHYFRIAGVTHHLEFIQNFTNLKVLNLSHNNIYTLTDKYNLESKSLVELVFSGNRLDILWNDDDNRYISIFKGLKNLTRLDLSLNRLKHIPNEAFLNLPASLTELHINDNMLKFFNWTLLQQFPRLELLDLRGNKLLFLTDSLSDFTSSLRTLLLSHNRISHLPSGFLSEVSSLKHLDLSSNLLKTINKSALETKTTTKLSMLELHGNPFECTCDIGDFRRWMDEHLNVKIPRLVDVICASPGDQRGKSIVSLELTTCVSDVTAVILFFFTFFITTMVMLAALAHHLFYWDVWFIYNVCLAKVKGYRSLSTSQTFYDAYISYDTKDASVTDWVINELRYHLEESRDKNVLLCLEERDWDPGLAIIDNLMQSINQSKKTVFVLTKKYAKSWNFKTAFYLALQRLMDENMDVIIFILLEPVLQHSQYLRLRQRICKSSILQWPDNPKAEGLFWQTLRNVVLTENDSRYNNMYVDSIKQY
The assay can be described thus: Antagonist activity at human TLR8 expressed in HEK-Blue cells assessed as inhibition of CL075-induced NFkappaB activation by measuring reduction in SEAP level up to 50 uM after overnight incubation using qunati-blue reagent by SEAP reporter gene-based spectrophotometric method. It is filed as cell-based. A general note: In a reporter assay the amount or activity of a reporter protein is the signal.

For assay [3], the target named is T1, Toll-like receptor 7. The assay can be described thus: Agonist activity at human TLR7 expressed in HEK-Blue cells assessed as induction of NFkappaB activation by measuring increase in SEAP level after overnight incubation using qunati-blue reagent by SEAP reporter gene-based spectrophotometric method. The assay is classed as cell-based.

Take `CCN1CCN(c2ncnc3c2ncn3CCCN2CCCCC2)CC1`: at Toll-like receptor 7 [1], the IC50 (usually the concentration needed to halve the response being measured) is 15.8 µM. For the same compound, the inhibition entry in assay [2] was “inactive”. At Toll-like receptor 7 [1], `CCN1CCN(c2ncnc3c2ncn3CCCN2CCOCC2)CC1` returned an IC50 of 40 µM. In addition, the inhibition entry in assay [2] is “inactive”. In the case of `CCN1CCN(CCCn2cnc3c(N4CCNCC4)ncnc32)CC1`, the IC50 against Toll-like receptor 7 [1] worked out at 39.3 µM. The inhibition entry in assay [2] was “inactive”.

For the compound `CCN1CCN(CCCn2c(O)nc3c(N)ncnc32)CC1`, the IC50 against Toll-like receptor 7 [1] came to 43.1 µM. Besides, in assay [2], the inhibition entry was “inactive”. At Toll-like receptor 7 [1], `CCN1CCN(c2ncnc3c2ncn3CCCN2CCCC2)CC1` came in with an IC50 of 48.3 µM. The inhibition result in assay [2] is “inactive”. In the case of `CCCCOc1nc(N)c2nc(O)n(CCCN3CCCCC3)c2n1`, the concentration giving a half-maximal response (EC50) (in general, the concentration needed to bring the measured effect to its halfway point) on Toll-like receptor 7 [3] is 2.6 µM. Regarding `CCN1CCN(c2ncnc3c2ncn3CCCN2CCNCC2)CC1`, the inhibition entry in assay [2] is “inactive”. Turning to `CCN1CCN(CCCn2cnc3c(N4CCCCC4)ncnc32)CC1`, the IC50 against Toll-like receptor 7 [1] stood at 23.9 µM. For the same compound, the inhibition entry in assay [2] is “inactive”.

At Toll-like receptor 7 [1], `CCN(CCO)CCCC(C)Nc1ccnc2cc(Cl)ccc12` (configuration not stated) [HYDROXYCHLOROQUINE] gave an IC50 of 8.6 µM. On Toll-like receptor 7 [1], `CCN1CCN(CCCn2cnc3c(N4CCOCC4)ncnc32)CC1` came in with an IC50 of 25 µM. The inhibition entry in assay [2] was “inactive”.
